Values quoted from earlier work in patent publication US10183028B2, “Enrichment method of ergosterol peroxide from sporoderm-broken Ganoderma lucidum spore powder” (Guangzhou Polysarm Bioscience Corp., priority 2015, dated 2019).

Assays:
[1] = test system: pieris rapae; details: Chinese application 01817014.5
[2] = test system: Hela cancer cells; details: Chinese application 201410311586.3
[3] = test system: aphid; details: Chinese application 01817014.5
[4] = test system: formation of melanin; details: Chinese application 01817014.5
[5] = test system: brain tumor cells (U87); details: Chinese application 201210233192.1
[6] = test system: human breast cancer and liver cancer; details: Chinese application 200610126091.9
[7] = test system: malignant breast cancer cells (MT-1); details: Chinese application 201210233192.1
[8] = test system: prodenia litura; details: Chinese application 01817014.5
[9] = test system: lymphoma cancer cells (Jurkat); details: Chinese application 201210233192.1
[10] = test system: fungal; details: Chinese application 200810119948.3
[11] = test system: drug-resistant brain tumor stem cells; details: Chinese application 201210233192.1

For `CC(C)[C@@H](C)C=C[C@@H](C)[C@H]1CC[C@@H]2[C@]1(C)CC[C@H]1[C@]23C=C[C@]2(C[C@@H](O)CC[C@]12C)OO3` [Ergosterol peroxide, 5α,8α-Epidioxyergosta-6,22-dien-3β-ol], the “poisoning effects on agricultural pests” value [1] is given as “poisoning effects”, the “synergy with taxol in killing or damaging Hela cancer cells” value [2] is given as “synergy with taxol” and the “poisoning effects on agricultural pests” value [3] is given as “poisoning effects”. For the same compound, the “inhibitory effects on the formation of melanin” value [4] was “strong inhibitory effects”, the “inhibitory effect on brain tumor cells (U87)” value [5] was “significant inhibitory effect” and the “harmful effects on immune organs and weight” value [6] was “no harmful effects”. For the same compound, the anti-tumor pharmacological activity ([6]; human breast cancer and liver cancer) was “significant anti-tumor”, the “inhibitory effect on malignant breast cancer cells (MT-1)” value [7] was “significant inhibitory effect” and the “poisoning effects on agricultural pests” value [8] was “poisoning effects”. The “inhibitory effect on lymphoma cancer cells (Jurkat)” value [9] was “significant inhibitory effect”, the antifungal bioactivity [10] was “remarkable antifungal bioactivity” and the “killing of drug-resistant brain tumor stem cells” value [11] was “kills”.
